Data from article PMC3857281, “Molecular Mechanism of Inhibition of the Mitochondrial Carnitine/Acylcarnitine Transporter by Omeprazole Revealed by Proteoliposome Assay, Mutagenesis and Bioinformatics” (PLoS ONE, 2013).
Residue numbers refer to the chain shown, from its start. Each block holds one molecule with its values, some of them ahead of it.

Key:
Type in all cases: biochemical
[1] = target: T1, mitochondrial carnitine/acylcarnitine transporter (CACT) (Rattus norvegicus, UniProt P97521); assay: [3H]carnitine/carnitine antiport in proteoliposomes
T1 construct: gene Slc25a20; recombinant WT rat CACT expressed in E. coli, reconstituted in liposomes
T1 sequence (P97521 2-301): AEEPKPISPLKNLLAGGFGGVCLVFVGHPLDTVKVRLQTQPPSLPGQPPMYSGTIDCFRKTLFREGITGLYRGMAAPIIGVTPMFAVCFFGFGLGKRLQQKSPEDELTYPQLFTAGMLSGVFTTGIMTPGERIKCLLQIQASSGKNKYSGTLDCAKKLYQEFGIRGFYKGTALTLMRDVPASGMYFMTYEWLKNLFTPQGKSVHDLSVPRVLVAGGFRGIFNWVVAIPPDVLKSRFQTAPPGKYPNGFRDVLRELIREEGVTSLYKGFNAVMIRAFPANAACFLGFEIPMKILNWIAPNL

[2] = target: T2, mitochondrial carnitine/acylcarnitine transporter (CACT), C283A mutant (Rattus norvegicus, UniProt P97521, C283A); assay: […] inhibition of antiport after […] omeprazole and removal of unreacted compound
T2 construct: gene Slc25a20; recombinant mutant rat CACT reconstituted in liposomes
T2 sequence (P97521 2-301 C283A): T1 sequence (P97521 2-301) with C282A

[3] = target: T1, mitochondrial carnitine/acylcarnitine transporter (CACT); assay: [3H]carnitine/carnitine antiport in proteoliposomes; acid-activated omeprazole (non-activated compound inactive)
[4] = target: T3, mitochondrial carnitine/acylcarnitine transporter (CACT), C136S mutant (Rattus norvegicus, UniProt P97521, C136S); assay: […] inhibition of antiport after […] omeprazole and removal of unreacted compound
T3 construct: gene Slc25a20; recombinant mutant rat CACT reconstituted in liposomes
T3 sequence (P97521 2-301 C136S): T1 sequence (P97521 2-301) with C135S

- IC50 ([1]; read-out: IC50): 80 µM
Compound: Cc1c(OCC(F)(F)F)ccnc1C[S+]([O-])c1nc2ccccc2[nH]1 (centres unmarked) [lansoprazole]

Compound: COc1ccc2[nH]c([S+]([O-])Cc3ncc(C)c(OC)c3C)nc2c1 (centres unmarked) [omeprazole]
- inhibition at 30 µM [2]: 53%
- IC50 [3]: 5.4 µM
- inhibition at 30 µM [4]: 59%

Compound: COc1ccnc(C[S+]([O-])c2nc3ccc(OC(F)F)cc3[nH]2)c1OC (centres unmarked) [pantoprazole]
- IC50 [1]: 6.4 µM
